Marks after values point to notes of the source that are not given here.

Data on five compounds can be found in patent US20120177742A1, “NANOPARTICLE AND SURFACE-MODIFIED PARTICULATE COATINGS, COATED BALLOONS, AND METHODS THEREFORE” (MICELL TECHNOLOGIES, INC., priority 2010, published 2012).

The nature of the series: Rapamycin coating affinity testing: distribution between solid and liquid phases with surfactant in water (UV-Vis). As to conditions: for Cal. Rapa (Sediment) / Cal. Rapa (Supernate): calculated from UV-Vis absorbance; for Cal. Rapa (Sediment): in mg (unit assumed); for Cal. Rapa (Supernate): unit assumed; for total (% original) / total (% of original): percent recovery of initial rapamycin loading. It counts as physicochemical. From the text:
One method of applying a positive surface charge to the coating is to add DMAB to the coating such that it is on its surface, at least. […] The coating is then sintered according to the RESS process. […] Care should be taken in certain embodiments to optimize the DMAB's application to the balloon and to handle the balloon thereafter to keep the DMAB from washing off. […] The initial mass of rapamycin is shown in the column labeled “Original rapa.” The supernatant (liquid phase) contains the material of interest as it is drug particles coated with the surfactant modifier. The values presented in the columns labeled “Cal. Rapa” are calculated from the UV-Vis absorbance spectrum of the sediment or supernatant respectively. The ratio of these two values determined the partition coefficient between the sediment and supernatant (reported in the column labeled “ratio”).
The initial mass of rapamycin is shown in the column labeled “Original rapa.” The supernatant (liquid phase) contains the material of interest as it is drug particles coated with the surfactant modifier. The values presented in the columns labeled “Cal. Rapa” are calculated from the UV-Vis absorbance spectrum of the sediment or supernatant respectively. The ratio of these two values determined the partition coefficient between the sediment and supernatant (reported in the column labeled “ratio”).

The mark [1] stands for this setting: 1:1 Surfactant to Rapa (w/w), 10x dilution in water.
[2] abbreviates: 1:1 Surfactant to Rapa, 10x dilution.
[3] abbreviates: 1:1 Surfactant to Rapa, 10x dilution, partition between supernatant and sediment.
[4] abbreviates: 1:10 Surfactant to Rapa (w/w), 100x dilution in water.
Setting [5] is: 1:10 Surfactant to Rapa, 100x dilution.
[6] abbreviates: 10:1 Surfactant to Rapa (w/w), 6x dilution in water.
Setting [7] is: 10:1 Surfactant to Rapa, 6x dilution.

Consider `CCCCCCCCCCCC[N+](C)(C)CCCCCCCCCCCC.[Br-]` [DMAB, didodecyldimethylammonium bromide], for which the Sediment wt was found to be 2.2 mg under setting [1], 8.52 mg under setting [4] and 3.73 mg under setting [6]. The “Cal. Rapa (Sediment)” value under setting [2] is given as 1.23, the “Cal. Rapa (Sediment)” value under setting [5] was 7.23 and the “Cal. Rapa (Sediment)” value under setting [7] is 1.23. The Cal. Rapa (Supernate) under setting [2] was 0.64 mg, the Cal. Rapa (Supernate) under setting [5] is 0.4 mg and the Cal. Rapa (Supernate) under setting [7] was 1.02 mg. Further, the ratio super/sed runs as follows: under setting [3], 0.52; under setting [5], 0.06; under setting [7], 0.83. Moreover, under setting [2], the “total (% original)” value is 98.4%. The “total (% of original)” value was determined as 79.5% under setting [5] and 107.1% under setting [7].

Compound `CCCCCCCCCCCCCC[N+](C)(C)CCCCCCCCCCCCCC.[Br-]` [Dimethylditetradecylammonium bromide, Dimethylditetradecyl Ammonium bromide] displayed a Sediment wt under setting [1] of 2.28 mg. For the same compound, under setting [2], the “Cal. Rapa (Sediment)” value is listed as 1.9, the Cal. Rapa (Supernate) was 0.59 mg and the “total (% original)” value came out at 113.2%. Also, under setting [3], the ratio super/sed was 0.31. The same compound gave a Sediment wt under setting [6] of 1.9 mg. Moreover, under setting [7], the ratio super/sed turned out to be 1.42, the “Cal. Rapa (Sediment)” value is 0.85, the Cal. Rapa (Supernate) is 1.21 mg and the “total (% of original)” value is 110.2%.

On to `CCCCCCCCCCCC[N+](C)(C)C.[Br-]` [Dodecyltrimethylammonium Bromide, Dodecyltrimethyl Ammonium Bromide], for which the Sediment wt runs as follows: under setting [1], 1.99 mg; under setting [4], 7.7 mg; under setting [6], 2.56 mg. The “Cal. Rapa (Sediment)” value is 1.65 under setting [2], 6.6 under setting [5] and 1.2 under setting [7]. Also, the Cal. Rapa (Supernate) is, setting by setting: under setting [2], 0.5 mg; under setting [5], 1.33 mg; under setting [7], 0.78 mg. The ratio super/sed under setting [3] turned out to be 0.30, the ratio super/sed under setting [5] is reported as 0.20 and the ratio super/sed under setting [7] is 0.65. Moreover, under setting [2], the “total (% original)” value was determined as 108.6%. The “total (% of original)” value is 81.9% under setting [5] and 87.6% under setting [7].

For the compound `CCCCCCCCCCCCCCCC[N+](C)(C)CC.[Br-]` [Ethylhexadecyldimethylammonium Bromide], the Sediment wt runs as follows: under setting [1], 3.85 mg; under setting [4], 8.6 mg; under setting [6], 3.21 mg. The “Cal. Rapa (Sediment)” value is, setting by setting: under setting [2], 1.37; under setting [5], 6.86; under setting [7], 0.04*. The Cal. Rapa (Supernate) was 0.33 mg under setting [2], 1.05 mg under setting [5] and 1.26 mg under setting [7]. Also, the ratio super/sed is, setting by setting: under setting [3], 0.24; under setting [5], 0.15; under setting [7], 31.50. Under setting [2], the “total (% original)” value was 89.5%. For the same compound, the “total (% of original)” value under setting [5] was 80.2% and the “total (% of original)” value under setting [7] stood at 59.6%.

The compound `CCCC[N+](CCCC)(CCCC)CCCC.[I-]` [Tetrabutylammonium iodide] showed a Sediment wt under setting [1] of 2.1 mg. Also, under setting [2], the “Cal. Rapa (Sediment)” value is on record as 1.97, the Cal. Rapa (Supernate) was 0.6 mg and the “total (% original)” value stood at 114.2%. Moreover, the ratio super/sed under setting [3] turned out to be 0.30. The Sediment wt under setting [6] is given as 2.05 mg. Further, under setting [7], the ratio super/sed was found to be 0.39, the “Cal. Rapa (Sediment)” value is 1.07, the Cal. Rapa (Supernate) is 0.42 mg and the “total (% of original)” value was determined as 80.1%.
